The record followed here is patent publication US12110288B2, “MASP-2 inhibitors and methods of use” (Omeros Corporation, priority 2019, dated 2024).

pKi: −log10 of the molar value. Counter-ions that a name gives are not always drawn.

T1 sequence (O00187 445-686 limits assumed): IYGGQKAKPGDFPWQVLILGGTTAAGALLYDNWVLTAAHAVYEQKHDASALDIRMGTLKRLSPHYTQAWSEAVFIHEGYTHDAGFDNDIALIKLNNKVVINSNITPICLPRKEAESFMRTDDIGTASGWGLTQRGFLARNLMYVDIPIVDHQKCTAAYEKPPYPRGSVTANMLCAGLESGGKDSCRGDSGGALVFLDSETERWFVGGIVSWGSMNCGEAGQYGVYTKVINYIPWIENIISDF
T1 sequence (O00187 298-444 partner limits assumed): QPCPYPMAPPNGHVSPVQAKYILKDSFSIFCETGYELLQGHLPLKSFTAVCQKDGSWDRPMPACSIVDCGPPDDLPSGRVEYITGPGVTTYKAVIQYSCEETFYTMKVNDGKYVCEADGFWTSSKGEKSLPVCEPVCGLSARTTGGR

This test concerns the target T1, MASP-2 (CCP1-CCP2-SP) (Homo sapiens, UniProt O00187).
T1 construct: 15 μL of Enzyme MASP-2 (CCP1-CCP2-SP) in Assay Buffer
Briefly: Enzymatic Assay for MASP-2. It is filed as biochemical. The settings on record: fluorogenic substrate based on C2 cleavage site, room temperature, 20 mM HEPES pH 7.4. The procedure: Enzymatic Assay for MASP-2
The MASP-2 assay utilizes a fluorogenic substrate, based on the cleavage site for its natural substrate C2. The assay is run at room temperature in an assay buffer containing 20 mM HEPES, pH 7.4, 140 mM NaCl and 0.1% Tween 20. Assay parameters are adjusted such that the assay is linear with respect to time, enzyme, and substrate concentrations. Under these optimized assays conditions, IC50 values are equivalent to Ki values, except in a few cases of “tight binding” inhibitors. Cases of “tight binding” or possible “slow binding” inhibitors are handled by the methods described in Copeland R. A. (2013) Evaluation of Enzyme Inhibitors in Drug Discovery. 2nd Ed., John Wiley and Sons, Inc., Chapters 5-7.
The MASP-2 assay protocol is carried out as follows. Test compounds are serially diluted in DMSO and then 100 nL of each dilution is transferred to the assay plate(s). 10 μL of Assay Buffer is added, followed by 15 μL of Enzyme MASP-2 (CCP1-CCP2-SP) in Assay Buffer. 15 μL of Substrate in Assay Buffer is then added and mixed to start the reactions. After 20 min at room temperature, 15 μL of a stop solution (0.1 M acetic acid) is added, mixed and the plates are read on a SpectraMax i3x Microplate Reader and exported as Excel files. Each assay plate included a “no inhibitor” (DMSO Only) control, a “no enzyme” control and a reference inhibitor control. % Activity values=100*(average test comp. fluorescence−average “no enzyme” fluorescence)/(average “DMSO only” fluorescence−average “no enzyme” fluorescence). IC50 and Ki values are very reproducible, falling well within ±2-fold.
The term pKi denotes −log10 of the Ki, conventionally taken in molar units. The low end stands for a large Ki, the high end for a small Ki. As to `Cc1nc(N)ccc1CNC(=O)Cn1c(-c2cnn(C)c2)cnc(NCCc2ccccc2)c1=O` [Compound 25, N-((6-Amino-2-methylpyridin-3-yl)methyl)-2-(6-(1-methyl-1H-pyrazol-4-yl)-2-oxo-3-(phenethylamino)pyrazin-1(2H)-yl)acetamide], the negative logarithm of the Ki (pKi) is above 6.30.

`Cn1cc(-c2cnc(NCCC(F)F)c(=O)n2CC(=O)NCc2cc3cnccc3[nH]2)cn1` [Compound 125, N-((1H-Pyrrolo[3,2-c]pyridin-2-yl)methyl)-2-(3-((3,3-difluoropropyl)amino)-6-(1-methyl-1H-pyrazol-4-yl)-2-oxopyrazin-1(2H)-yl)acetamide trifluoroacetate] gave a pKi above 6.30.

For the compound `O=C(Cn1c(-c2ccccc2)cnc(NCC2(c3ccccc3)COC2)c1=O)NCc1cc2cnccc2[nH]1` [Compound 47, N-((1H-pyrrolo[3,2-c]pyridin-2-yl)methyl)-2-(2-oxo-6-phenyl-3-(((3-phenyloxetan-3-yl)methyl)amino)pyrazin-1(2H)-yl)acetamide trifluoroacetate], the negative logarithm of the Ki (pKi) is above 6.30.

`O=C(Cn1c(-c2ccccc2)cnc(NCC2(c3ccc(F)cc3)COC2)c1=O)NCc1cc2cnccc2[nH]1` [Compound 55, N-((1H-Pyrrolo[3,2-c]pyridin-2-yl)methyl)-2-(3-(((3-(4-fluorophenyl)oxetan-3-yl)methyl)amino)-2-oxo-6-phenylpyrazin-1(2H)-yl)acetamide trifluoroacetate] had a pKi above 6.30.

`Cc1nc(N)ccc1CNC(=O)Cn1c(-c2ccccc2)ncc(NCCc2ccccc2)c1=O` [Compound 6, N-((6-Amino-2-Methylpyridin-3-yl)Methyl)-2-(6-Oxo-5-(Phenethylamino)-2-Phenylpyrimidin-1(6H)-yl)Acetamide]: the pKi was above 6.30.

In turn, `O=C(Cn1c(-c2ccccc2)cnc(NCC2(c3cccc(Cl)c3)CC2)c1=O)NCc1cc2cnccc2[nH]1` [Compound 71, N-((1H-Pyrrolo[3,2-c]pyridin-2-yl)methyl)-2-(3-(((1-(3-chlorophenyl)cyclopropyl)methyl)amino)-2-oxo-6-phenylpyrazin-1(2H)-yl)acetamide trifluoroacetate] had a pKi above 6.30.

`O=C(Cn1c(-c2ccccc2)cnc(NCC2(c3ccccc3)CC2)c1=O)NCc1cc2cnccc2[nH]1` [Compound 52, N-((1H-Pyrrolo[3,2-c]pyridin-2-yl)methyl)-2-(2-oxo-6-phenyl-3-(((1-phenylcyclopropyl)methyl)amino)pyrazin-1(2H)-yl)acetamide trifluoroacetate] gave a pKi above 6.30.

In turn, `Cc1nc(N)ccc1CNC(=O)Cn1c(-c2ccc(Cl)cc2)cnc(NCCc2ccccc2)c1=O` [Compound 17, N-((6-Amino-2-Methylpyridin-3-yl)Methyl)-2-(6-(4-Chlorophenyl)-2-Oxo-3-(Phenethylamino)Pyrazin-1(2H)-yl) Acetamide, Trifluoroacetate] had a pKi above 6.30.

`Cc1ccccc1-c1cnc(NCCc2ccccc2)c(=O)n1CC(=O)NCc1cc2cnccc2[nH]1` [Compound 87, N-((1H-Pyrrolo[3,2-c]pyridin-2-yl)methyl)-2-(2-oxo-3-(phenethylamino)-6-(o-tolyl)pyrazin-1(2H)-yl)acetamide trifluoroacetate]: the negative-log Ki (pKi) was above 6.30.

`O=C(Cn1c(-c2ccccc2)cnc(NCC2(c3ccc(Cl)cc3)CC2)c1=O)NCc1cc2cnccc2[nH]1` [Compound 57, N-((1H-Pyrrolo[3,2-c]pyridin-2-yl)methyl)-2-(3-(((1-(4-chlorophenyl)cyclopropyl)methyl)amino)-2-oxo-6-phenylpyrazin-1(2H)-yl)acetamide trifluoroacetate] showed a negative logarithm of the Ki (pKi) above 6.30.

Compound `Cc1nc(N)ccc1CNC(=O)Cn1c(-c2cccc(C(N)=O)c2)cnc(NCCc2ccccc2)c1=O` [Compound 30, 3-(1-(2-(((6-Amino-2-methylpyridin-3-yl)methyl)amino)-2-oxoethyl)-6-oxo-5-(phenethylamino)-1,6-dihydropyrazin-2-yl)benzamide hydrochloride] showed a negative-log Ki (pKi) above 6.30.

For `COCCCCNc1ncc(-c2cnn(C)c2)n(CC(=O)NCc2cc3cnccc3[nH]2)c1=O` [Compound 122, N-((1H-Pyrrolo[3,2-c]Pyridin-2-yl)Methyl)-2-(3-((4-Methoxybutyl)Amino)-6-(1-Methyl-1H-Pyrazol-4-yl)-2-Oxopyrazin-1(2H)-yl)Acetamide Trifluoroacetate], the pKi was above 6.30.

With `O=C(Cn1c(-c2ccccc2)cnc(NCCC(F)F)c1=O)NCc1cc2cnccc2[nH]1` [Compound 127, N-((1H-Pyrrolo[3,2-c]pyridin-2-yl)methyl)-2-(3-((3,3-difluoropropyl)amino)-2-oxo-6-phenylpyrazin-1(2H)-yl)acetamide trifluoroacetate], the pKi was above 6.30.

As for `CCCCOc1cnc(NCCc2ccccc2)c(=O)n1CC(=O)NCc1cc2cnccc2[nH]1` [Compound 162, N-((1H-Pyrrolo[3,2-c]Pyridin-2-yl)Methyl)-2-(6-Butoxy-2-Oxo-3-(Phenethylamino)Pyrazin-1(2H)-yl)Acetamide], the pKi is above 6.30.

`O=C(Cn1c(-c2ccccc2)cnc(NCc2ccc(Cl)cc2)c1=O)NCc1cc2cnccc2[nH]1` [Compound 73, N-((1H-Pyrrolo[3,2-c]pyridin-2-yl)methyl)-2-(3-((4-chlorobenzyl)amino)-2-oxo-6-phenylpyrazin-1(2H)-yl)acetamide trifluoroacetate] showed a pKi above 6.30.

As to `Cn1c(CNC(=O)Cn2c(-c3ccccc3)cnc(NCCc3ccccc3)c2=O)cc2cnccc21` [Compound 46, N-((1-Methyl-1H-Pyrrolo[3,2-c]Pyridin-2-yl)Methyl)-2-(2-Oxo-3-(Phenethylamino)-6-Phenylpyrazin-1(2H)-yl)Acetamide Trifluoroacetate], the pKi was above 6.30.

Turning to `CC(C)Nc1cnc(N(CCc2ccccc2)CCc2ccccc2)c(=O)n1CC(=O)NCc1cc2cnccc2[nH]1` [Compound 159], the negative-log Ki (pKi) is below 5.00.

Compound `COc1ccc(CCNc2ncc(-c3ccccc3)n(CC(=O)NCc3cc4cnccc4[nH]3)c2=O)cc1` [Compound 142, N-((1H-Pyrrolo[3,2-c]pyridin-2-yl)methyl)-2-(3-((4-methoxyphenethyl)amino)-2-oxo-6-phenylpyrazin-1(2H)-yl)acetamide] had a pKi above 6.30.

As to `Nc1nc2cc(CNC(=O)Cn3c(-c4ccccc4)cnc(NCCc4ccccc4)c3=O)ccc2[nH]1` [Compound 9, N-((2-Amino-1H-Benzo[d]Imidazol-5-yl)Methyl)-2-(2-Oxo-3-(Phenethylamino)-6-Phenylpyrazin-1(2H)-yl)Acetamide], the pKi is above 6.30.

`Cc1nccc2[nH]c(CNC(=O)Cn3c(-c4ccccc4)cnc(NCCc4ccccc4)c3=O)cc12` [Compound 72, trifluoroacetate] had a pKi above 6.30.

With `Cc1nc(N)ccc1CNC(=O)Cn1c(-c2ccccc2Cl)cnc(NCCc2ccccc2)c1=O` [Compound 29], the pKi was above 6.30.

With `O=C(Cn1c(-c2ccc(F)cc2)cnc(NCCc2ccccc2)c1=O)NCc1cc2cnccc2[nH]1` [Compound 106, N-((1H-Pyrrolo[3,2-c]pyridin-2-yl)methyl)-2-(6-(4-fluorophenyl)-2-oxo-3-(phenethylamino)pyrazin-1(2H)-yl)acetamide], the pKi is above 6.30.

`CC(C)(O)c1cccc(-c2cnc(NCCc3ccccc3)c(=O)n2CC(=O)NCc2cc3cnccc3[nH]2)c1` [Compound 92, N-((1H-Pyrrolo[3,2-c]pyridin-2-yl)methyl)-2-(6-(3-(2-hydroxypropan-2-yl)phenyl)-2-oxo-3-(phenethylamino)pyrazin-1(2H)-yl)acetamide] had a pKi above 6.30.

`Cn1cc(-c2cnc(NCCc3ccccc3)c(=O)n2CC(=O)NCc2cc3c(s2)CCNC3)cn1` [Compound 78, 2-(6-(1-Methyl-1H-Pyrazol-4-yl)-2-Oxo-3-(Phenethylamino)Pyrazin-1(2H)-yl)-N-((4,5,6,7-Tetrahydrothieno[3,2-c]Pyridin-2-yl)Methyl)Acetamide] gave a pKi of 5.60 to 6.30.

In turn, `Cn1nccc1-c1cnc(NCCc2ccccc2)c(=O)n1CC(=O)NCc1cc2cnccc2[nH]1` [Compound 105, N-((1H-Pyrrolo[3,2-c]pyridin-2-yl)methyl)-2-(6-(1-methyl-1H-pyrazol-5-yl)-2-oxo-3-(phenethylamino)pyrazin-1(2H)-yl)acetamide] had a negative logarithm of the Ki (pKi) above 6.30.

Compound `Cc1nc(N)ccc1CNC(=O)Cn1c(C#Cc2ccccc2)cnc(NCCc2ccccc2)c1=O` [Compound 26, N-((6-Amino-2-Methylpyridin-3-yl)Methyl)-2-(2-Oxo-3-(Phenethylamino)-6-(Phenylethynyl)Pyrazin-1(2H)-yl)Acetamide] showed a negative logarithm of the Ki (pKi) of 5.60 to 6.30.

Consider `CS(=O)(=O)NCc1cccc(-c2cnc(NCCc3ccccc3)c(=O)n2CC(=O)NCc2cc3cnccc3[nH]2)c1` [Compound 95, N-((1H-Pyrrolo[3,2-c]Pyridin-2-yl)Methyl)-2-(6-(3-(Methylsulfonamidomethyl)Phenyl)-2-Oxo-3-(Phenethylamino)Pyrazin-1(2H)-yl)Acetamide], for which the negative-log Ki (pKi) was above 6.30.
